Laboratory results reported in publication PMC5662925, “Selective Targeting of Bromodomains of the Bromodomain-PHD Fingers Family Impairs Osteoclast Differentiation” (ACS Chemical Biology, 2017).

Tests used:
[1] = test system: MMP9 secretion by human RANKL-induced osteoclasts; experiment: MMP9 ELISA of human osteoclast supernatant; type: cell-based; details: 1.25 μM, 7 days or 11 days
[2] = test system: NFATC1 protein level in murine BMCs; experiment: Western blot of NFATC1 in murine BMCs; type: cell-based, mouse; details: 10 ng/mL RANKL, 1 μM and 2 μM
Source text: Figure 5 BRPF1B binding partners and effect of BRPF bromodomain inhibition on gene transcription during mouse osteoclastogenesis. […] The color of the circle represents the absolute spectral counts observed for the prey proteins. The circle size indicates the quantitative enrichment of a prey across all baits tested while the estimated FDR for the interaction is shown as the color of the circle edge. (B) Inhibition of murine osteoclast differentiation by panBRPF bromodomain inhibition. […] Bar scale indicates 200 μm. […] Data were normalized to day 0 of RANKL treatment. […] LaminB1 was used as a loading control.
Murine osteoclast-like cells were PBS washed, homogenized and lysed in RIPA buffer (50 mM Tris-HCl, pH 7.4; 150 mM NaCl; 1% NP-40; 0.5% Na-deoxycholate; 0.1% SDS; 2 mM EDTA; 10 mM NaF) containing protease inhibitors (Pierce, according to manufacturer’s specifications) with a 1 mL syringe and a 23-gauge needle. After centrifugation at 15 000 rpm at 4 °C for 10 min, supernatants were frozen at −80 °C. Protein concentrations were assayed using a Pierce BCA Kit, and 30 μg of protein per lane was subjected on 10% SDS gel. […] Absorbance was measured at 440 nm.

BRPF2 = molecular target: T1, BRPF2 (Homo sapiens, UniProt O95696); experiment: Isothermal titration calorimetry (ITC); type: binding; details: ITC data
T1 construct: All recombinant bromodomains were expressed as described in Filippakopoulos et al; made in house
T1 sequence (O95696 562-666 limits assumed): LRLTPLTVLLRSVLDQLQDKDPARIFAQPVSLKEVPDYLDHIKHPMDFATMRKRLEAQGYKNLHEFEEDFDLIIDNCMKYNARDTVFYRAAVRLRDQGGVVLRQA

[3] = test system: osteoclast marker genes (TRAP, CATK, CA2, NFATC1, OC-STAMP) in murine BMCs; experiment: qPCR of osteoclast marker genes in murine BMCs; type: cell-based, mouse; details: 10 ng/mL RANKL, 1 μM and 2 μM, 0-3 days
[4] = test system: human primary monocytes (PBMCs) differentiated with RANKL; experiment: Human osteoclast differentiation (TRAP-positive multinucleated cells)
[5] = test system: primary murine bone marrow cells differentiated with RANKL; experiment: Murine osteoclast differentiation, TRAP stain; type: cell-based, mouse
Source text: Epigenetic mechanisms play an important role in patterning and differentiation processes, and BRPF and its associated HATs have been particularly associated with differentiation of hematopoietic cells. Given our interest in bone biology, and the hematopoietic origin of the osteoclast, we investigated the potential role of the targeted bromodomains in osteoclastogenesis in mouse and human cells. Bone marrow mononuclear cells were isolated from wild-type mice, cultivated for 5 days in the presence of CSF-1, and replated in the presence of RANKL for differentiation into osteoclasts,[28] either with DMSO as a control or with varying doses of the BRPF inhibitors. […] To understand the molecular basis for this observation, we investigated the expression of several osteoclast marker genes using qPCR. […] To further investigate other osteoclast-specific effects of the BRPF inhibitors on gene transcription, we profiled genome-wide expression with Illumina MouseWG-6 v2.0 Expression BeadChips at different time points.

[6] = test system: human osteoclast-like cells on dentine slices; experiment: Bone resorption on dentine slices; details: 1 μM
BRD4(1) = BRD4(1) (Homo sapiens, UniProt O60885); experiment: Temperature shift assay (ΔTm); type: binding; details: 10 µM compound
[7] = test system: murine monocytic RAW246.7 cells; experiment: Proliferation / cell count of RAW cells; type: cell-based, mouse; details: 72 h treatment, 10 µM, n = 4, t-test p = 0.73
Experimental: Supplementary Figure 4: Inhibition of murine osteoclast differentiation. A) TRAP stain of primary murine bone marrow cells (BMCs) differentiated into osteoclasts for 3 days with RANKL plus either the treatment with DMSO or NIL57 at 1 µM. Bar scale indicates 200 µm. […]
treated bone marrow cells after 1, 2 and 3 days of differentiation as compared to bone marrow cells before RANKL treatment start. C.) Count of RAW cells after 72 h treatment […]
content of primary mouse BMCs treated for 0, 1, 2 and 3 days with either without or with 1

[8] = test system: human osteoclast-like cells on bone mineral substrate; experiment: Bone resorption, Osteosurface assay (hydroxyapatite); type: cell-based
Source text: Dentine pits were imaged with confocal microscopy.

[9] = test system: RANKL-induced expression of Ppap2a and SphK1; experiment: Microarray genome-wide expression in murine BMCs; type: cell-based, mouse; details: 2 μM
Experimental: (A) Heat map of the top 25 significant differentially expressed genes between DMSO and OF-1-treated BMCs based on sorted average p-value for the time points 48 and 72 h. Red indicates higher; blue indicates lower expression. See also, Supporting Information Figures 3 and 4.
Murine bone marrow stem cells were differentiated into osteoclast-like cells as described above. Cells were PBS-washed and lysed in RLT-Buffer (including 2-Mercaptoethanol; Qiagen, UK), and RNA was isolated via RNeasy Plus Mini Kit (Quiagen, UK). After confirmation of RNA quality (RIN = 2 ± 0.1), cDNA synthesis of approximately 1000 ng of RNA with a High Capacity cDNA Reverse Transcription Kit (Applied Biosystems, UK) was carried out. A total of 500 ng/μL cDNA was subjected to MouseWG-6 v2.0 Expression BeadChips (Illumina) at the Department of Pathology, University of Cambridge. Microarray data are available in the ArrayExpress database (www.ebi.ac.uk/arrayexpress) under accession number E-MTAB-4155. Gene expression data underwent log2 transformation and quantile normalization. Genes were filtered based on their variation across the experiments, i.e., excluding genes with a standard deviation of expression lower than 0.1. For genes with multiple probes, only the highest variable probe was selected for further analysis. […]

SMILES	MMP9 secretion [1]	NFATC1 protein level [2]	weaker potency for BRPF2 (vs BRPF1B) (BRPF2) [fold]	expression of osteoclast marker genes (qPCR) [3]	fusion into multinucleated osteoclast-like cells [4]	number of multinucleated TRAP positive cells [5]	resorption of dentine [6]	ΔTm at 10 µM (BRD4(1)) [°C]	Count of RAW cells vs DMSO [7]	pit formation on hydroxyapatite (Osteosurface assay) [8]	RANKL-induced expression of Ppap2a and SphK1 [9]
COc1ccccc1C(=O)Nc1cc2c(cc1N1CCCC1)n(C)c(=O)n2C [PFI-4]	significant reductions										
COc1cc2c(cc1NS(=O)(=O)c1ccc(Br)cc1C)n(C)c(=O)n2C [OF-1]	significant reductions	strong down-regulation	5	significant reductions	completely suppress	significant reductions	complete block	2.1	no significant difference	significant reduction	significantly down-regulated
